Data on six molecules can be found in ChEMBL document CHEMBL1201862, “PubChem BioAssay data set” (2004).

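1) Cells in 96-well plates. 2) Compound, 48 h, 5 concentrations. 3) Linear interpolation between surrounding doses. 4) Unreached endpoint = highest concentration. At the GI50, growth is halved.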 Activity calls are given as the source filed them. No stated cut-off is given here; in the data, active = GI50 up to about 1.1 µM and inactive = higher.

Test in all cases: inhibition of tumour cell growth, NCI panel, 48 h
The test system of experiment [1] is NCI-H23.
For experiment [2], the system named is HCT-15.
For experiment [3], the system named is DMS-114.
The subject of experiment [4] is SK-MEL-28.
The test system of experiment [5] is COLO 205.
In experiment [6] the test system is NCI-H226.
The subject of experiment [7] is SK-OV-3.
The test system of experiment [8] is EKVX.
Experiment [9] relates to CCRF-CEM.
Experiment [10] relates to MOLT-4.
The subject of experiment [11] is KM12.
The test system of experiment [12] is MDA-MB-435.
Experiment [13] has as its system 786-0.
Experiment [14] has as its system SNB-75.
Experiment [15] concerns LXFL 529.
The test system of experiment [16] is NCI-H522.
Experiment [17] relates to K562.
The subject of experiment [18] is OVCAR-5.
Experiment [19] deals with HT-29.
Experiment [20] has as its system Hs-578T.

Consider `CCCCCCCC(=O)O[C@H]1[C@H]2[C@@H](CC1(C)C)C(=O)[C@]13O[C@H]1C(=O)[C@]1(CO1)[C@]23C`, for which the GI50 in experiment [1] was 3.46 µM (inactive); in [2] it was 2.96 µM; in [3] it was 3.41 µM (inactive); in experiment [4] it was 3.38 µM (inactive); in experiment [5] it was 1.23 µM (inactive); in experiment [6], 13.9 µM (inactive). For the same molecule, the GI50 is 34.3 µM (inactive) in [7]; 3.66 µM (inactive) in experiment [8]; 0.0615 µM (active) in experiment [9]; 0.251 µM (active) in experiment [10]; 7.73 µM (inactive) in [11]; 24.2 µM (inactive) in [12]. The GI50 is 5.07 µM (inactive) in experiment [13]; 23.4 µM (inactive) in experiment [14]; 1.58 µM (inactive) in [15]; 1.3 µM (inactive) in experiment [16]; 0.573 µM (active) in [17]; 11.1 µM (inactive) in [18]. The figures for the GI50 in experiment [19] and in experiment [20] were 5.19 µM (inactive) and 46 µM (inactive), respectively.

With `NNC(=O)/C(=C/c1cccc([N+](=O)[O-])c1)NC(=O)c1ccccc1`, the GI50 in experiment [1] is > 100 µM (inactive); in experiment [2], over 100 µM; in experiment [3], > 100 µM (inactive); in experiment [4], > 100 µM (inactive); in experiment [5] it was > 100 µM (inactive); in [6], > 100 µM (inactive). Besides, the GI50 in experiment [7] is > 100 µM (inactive); in experiment [8], < 0.01 µM (active); in experiment [9], > 100 µM (inactive); in experiment [10], > 100 µM (inactive); in experiment [11] it was > 100 µM (inactive); in [13], > 100 µM (inactive). In addition, the GI50 is > 100 µM (inactive) in [14]; > 100 µM (inactive) in experiment [15]; > 100 µM (inactive) in experiment [16]; > 100 µM (inactive) in experiment [17]; 77.3 µM (inactive) in experiment [18]; > 100 µM (inactive) in experiment [19].

For `N/C(=N\O)N/N=C/c1cccc(F)c1`, the GI50 in experiment [1] was 39 µM (inactive); in [2], 50.9 µM; in [3], 22.9 µM (inactive); in experiment [4], > 100 µM (inactive); in [5], 36.3 µM (inactive); in experiment [6] it was 21 µM (inactive). Besides, the GI50 is 55.7 µM (inactive) in [7]; 37.1 µM (inactive) in experiment [8]; 23.8 µM (inactive) in [9]; 43.5 µM (inactive) in experiment [10]; 34.1 µM (inactive) in [11]; 30.4 µM (inactive) in [13]. The GI50 in experiment [14] was 52.6 µM (inactive); in experiment [15], 27 µM (inactive); in [16] it was 29.5 µM (inactive); in [17] it was 19.4 µM (inactive); in [18], 33.7 µM (inactive); in experiment [19] it was 30.4 µM (inactive).

For the molecule `c1ccc(SCCP(CCP(c2ccccc2)c2ccccc2)c2ccccc2)cc1` (stereo unspecified), the GI50 in [1] was 2.95 µM (inactive); in [2] it was 17.7 µM; in experiment [3] it was 10.2 µM (inactive); in experiment [4] it was 21.3 µM (inactive); in experiment [5], 8.77 µM (inactive); in experiment [6] it was 23.1 µM (inactive). In addition, the GI50 in [7] was 6.61 µM (inactive); in experiment [8], 9.02 µM (inactive); in experiment [9], 8.3 µM (inactive); in [10], 11.4 µM (inactive); in [11] it was 2.1 µM (inactive); in experiment [12], 11.5 µM (inactive). Besides, the GI50 in experiment [13] was 4.57 µM (inactive); in [14], 0.948 µM (active); in [15], 3.33 µM (inactive); in experiment [17] it was 4.21 µM (inactive); in experiment [18] it was 46.6 µM (inactive); in [19] it was 3.47 µM (inactive). The GI50 in [20] was 4.61 µM (inactive).

For the molecule `COc1ccc2c(c1OC)C(C=C(c1ccccc1)c1ccccc1)CN(C)C2` (stereo unspecified), the GI50 in experiment [1] was 22.4 µM (inactive); in [2], 15 µM; in experiment [3] it was 13.9 µM (inactive); in experiment [4], 22.4 µM (inactive); in experiment [5], 14.5 µM (inactive); in [6], 22.6 µM (inactive). Further, the GI50 in experiment [7] was 27.4 µM (inactive); in experiment [8], 35.3 µM (inactive); in experiment [9] it was 21.3 µM (inactive); in experiment [10], 31.6 µM (inactive); in [11], 18.9 µM (inactive); in experiment [13] it was 16.7 µM (inactive). Also, the GI50 in [14] was 34.3 µM (inactive); in [15] it was 14.4 µM (inactive); in [16] it was 17.2 µM (inactive); in experiment [17], 6.21 µM (inactive); in experiment [18], 6.79 µM (inactive); in experiment [19], 6.82 µM (inactive).

In the case of `CCOC(=O)/C(C#N)=C(O)/C(=C/c1ccccc1Cl)NC(=O)c1ccccc1`, the GI50 in experiment [1] is > 100 µM (inactive); in [2] it was 27.7 µM; in experiment [3], > 100 µM (inactive); in experiment [4] it was > 100 µM (inactive); in experiment [5], > 100 µM (inactive); in experiment [6], > 100 µM (inactive). The GI50 in [7], in experiment [8], in experiment [9], in [10], in [11] and in [13] was > 100 µM (inactive) in each case. The GI50 was > 100 µM (inactive) in experiment [14]; > 100 µM (inactive) in experiment [15]; 0.0195 µM (active) in experiment [16]; 88.1 µM (inactive) in experiment [17]; > 100 µM (inactive) in experiment [18]; > 100 µM (inactive) in experiment [19].
